What was measured:
[1] = system: Lrp-like protein; assay: Gel filtration analysis of changes in assemblies of the Lrp-like protein on mixing with potential ligands; format: biochemical, Pyrococcus sp. OT3; conditions: for change in gel filtration profile of the Lrp-like protein (peak increased): protein monomer approximately 100 μM, at least 30 minutes at room temperature, UV 220 nm
Protocol: Possible changes in assemblies of the Lrp-like protein induced by interaction with amino acids and metabolic intermediates were analyzed in solution using gel filtration.
Gel filtration was carried out with the flow rate […], using a matrix (Protein Pak 125, 7.8×300 mm, Waters) and 50 mM Tris-HCl buffer (pH 7.0) containing 300 mM sodium chloride. Flow of the proteins was monitored by measuring the UV absorbance at 220 nm (LC Module I plus system, Waters). The Lrp-like protein purified by method 2, i.e., the rigorous method, were dissolved in 50 mM Tris-HCl buffer (pH 7.0) containing 200 mM sodium chloride, and kept at −80° C. until it was diluted by 10-fold with 50 mM Tris-HCl buffer (pH 7.0) containing 300 mM sodium chloride, and mixed with each potential ligand for at least 30 minutes at room temperature (about 25° C.). In the mixture, the monomer concentration of the Lrp-like protein was approximately 100 μM.

[2] = system: Lrp-like protein; assay: Depolarization of crystals of the Lrp-like protein soaked in amino acid solutions; format: binding, Pyrococcus sp. OT3; conditions: crystals soaked in 10 mM amino acid; several hours
Protocol: It has been known that the regularity inside a crystal might be affected, if the structure of the protein changes upon interaction with a ligand which is incorporated from outside the crystal, thereby depolarizing the crystal. Thus, crystals of the Lrp-like protein were soaked into solutions, each containing one of twenty amino acids at the same concentration 10 mM.

Row | SMILES | change in gel filtration profile of the Lrp-like protein (peak increased) ([1]; metabolic intermediate 10 mM) | effect on assembling of the Lrp-like protein concluded from gel filtration ([1]; amino acid 1 mM) | change in gel filtration profile of the Lrp-like protein (peak increased) ([1]; amino acid 1 mM) | depolarization of crystals of the Lrp-like protein [2] | effect on assembling of the Lrp-like protein concluded from gel filtration ([1]; metabolic intermediate 10 mM)
1 | O=C(O)C(O)COP(=O)(O)O (centres unmarked) [3-phosphoglyceric acid] | no significant effect was observed |  |  |  | 
2 | C[C@H](N)C(=O)O [alanine] |  | accelerate disassembling of the protein | increasing the fourth peak |  | 
3 | N=C(N)NCCC[C@H](N)C(=O)O [arginine] |  | accelerate disassembling of the protein | increasing the fourth peak |  | 
4 | CC[C@H](C)[C@H](N)C(=O)O [isoleucine] |  | accelerates assembling of the protein | increasing the second peak | depolarized | 
5 | CC(C)C[C@H](N)C(=O)O [leucine] |  | accelerate disassembling of the protein | increasing the fourth peak | depolarized | 
6 | O=C(O)CC(O)C(=O)O (centres unmarked) [malic acid] | the third peak increased |  |  |  | intermediate effects
7 | CSCC[C@H](N)C(=O)O [methionine] |  | accelerate disassembling of the protein | increasing the fourth peak | depolarized | 
8 | O=C(O)CC(=O)C(=O)O [oxaloacetic acid] | the third peak increased |  |  |  | intermediate effects
9 | N[C@@H](Cc1ccccc1)C(=O)O [phenylalanine] |  | accelerate disassembling of the protein | increasing the fourth peak |  | 
10 | CC(=O)C(=O)O [pyruvic acid] | no significant effect was observed |  |  |  | 
11 | C[C@@H](O)[C@H](N)C(=O)O [threonine] |  | accelerate disassembling of the protein | increasing the fourth peak |  | 
12 | CC(C)[C@H](N)C(=O)O [valine] |  | intermediate effects | the third peak increased | depolarized | 

— patent publication US20050208463A1, “Method of screening drug” (priority 2001, published 2005)
